Patent US8741944B2, “Anti-infective agents against intracellular pathogens” (priority 2007, dated 2014)

Columns and labels:
[1] = tested on: EKVX (Non-Small Cell Lung Cancer); assay: NCI DTP tumor cell line screen (SRB), EKVX
Experimental: (§1) For a typical screening experiment, cells are inoculated into 96 well microtiter plates in 100 μL at plating densities ranging from 5,000 to 40,000 cells/well depending on the doubling time of individual cell lines. After cell inoculation, the microtiter plates are incubated at 37° C., 5% CO2, 95% air and 100% relative humidity for 24 h prior to addition of experimental drugs.
(§2) After 24 h, two plates of each cell line are fixed in situ with TCA, to represent a measurement of the cell population for each cell line at the time of drug addition (Tz). Experimental drugs are solubilized in dimethyl sulfoxide at 400-fold the desired final maximum test concentration and stored frozen prior to use. At the time of drug addition, an aliquot of frozen concentrate is thawed and diluted to twice the desired final maximum test concentration with complete medium containing 50 μg/ml gentamicin. Additional four, 10-fold or ½ log serial dilutions are made to provide a total of five drug concentrations plus control. Aliquots of 100 μl of these different drug dilutions are added to the appropriate microtiter wells already containing 100 μl of medium, resulting in the required final drug concentrations.
(§3) Following drug addition, the plates are incubated for an additional 48 h at 37° C., 5% CO2, 95% air, and 100% relative humidity. For adherent cells, the assay is terminated by the addition of cold TCA. Cells are fixed in situ by the gentle addition of 50 μl of cold 50% (w/v) TCA (final concentration, 10% TCA) and incubated for 60 minutes at 4° C. The supernatant is discarded, and the plates are washed five times with tap water and air dried. Sulforhodamine B (SRB) solution (1001) at 0.4% (w/v) in 1% acetic acid is added to each well, and plates are incubated for 10 minutes at room temperature. After staining, unbound dye is removed by washing five times with 1% acetic acid and the plates are air dried. Bound stain is subsequently solubilized with 10 mM trizma base, and the absorbance is read on an automated plate reader at a wavelength of 515 nm. For suspension cells, the methodology is the same except that the assay is terminated by fixing settled cells at the bottom of the wells by gently adding 50 μl of 80% TCA (final concentration, 16% TCA). Using the seven absorbance measurements [time zero, (Tz), control growth, (C), and test growth in the presence of drug at the five concentration levels (Ti)], the percentage growth is calculated at each of the drug concentrations levels. Percentage growth inhibition is calculated as: [(Ti−Tz)/(C−Tz)]×100 for concentrations for which Ti>/=Tz [(Ti−Tz)/Tz]×100 for concentrations for which Ti<Tz
(§4) Three dose response parameters are calculated for each experimental agent. […] The drug concentration resulting in total growth inhibition (TGI) is calculated from Ti=Tz. […] Values are calculated for each of these three parameters if the level of activity is reached; however, if the effect is not reached or is exceeded, the value for that parameter is expressed as greater or less than the maximum or minimum concentration tested.

ACHN (Renal Cancer) = assay: NCI DTP tumor cell line screen (SRB), ACHN
Experimental: as §1, §2, §3, §4

MCF7 (Breast Cancer) = assay: NCI DTP tumor cell line screen (SRB), MCF7
Experimental: as §1, §2, §3, §4

K-562 (Leukemia) = assay: NCI DTP tumor cell line screen (SRB), K-562
Experimental: as §1, §2, §3, §4

786-0 (Renal Cancer) = assay: NCI DTP tumor cell line screen (SRB), 786-0
Experimental: as §1, §2, §3, §4

UO-31 (Renal Cancer) = assay: NCI DTP tumor cell line screen (SRB), UO-31
Experimental: as §1, §2, §3, §4

T-47D (Breast Cancer) = assay: NCI DTP tumor cell line screen (SRB), T-47D
Experimental: as §1, §2, §3, §4

[2] = tested on: HOP-62 (Non-Small Cell Lung Cancer); assay: NCI DTP tumor cell line screen (SRB), HOP-62
Experimental: as §1, §2, §3, §4

IGROV1 (Ovarian Cancer) = assay: NCI DTP tumor cell line screen (SRB), IGROV1
Experimental: as §1, §2, §3, §4

CAKI-1 (Renal Cancer) = assay: NCI DTP tumor cell line screen (SRB), CAKI-1
Experimental: as §1, §2, §3, §4

HCT-116 (Colon Cancer) = assay: NCI DTP tumor cell line screen (SRB), HCT-116
Experimental: as §1, §2, §3, §4

UACC-62 (Melanoma) = assay: NCI DTP tumor cell line screen (SRB), UACC-62
Experimental: as §1, §2, §3, §4

OVCAR-8 (Ovarian Cancer) = assay: NCI DTP tumor cell line screen (SRB), OVCAR-8
Experimental: as §1, §2, §3, §4

RXF 393 (Renal Cancer) = assay: NCI DTP tumor cell line screen (SRB), RXF 393
Experimental: as §1, §2, §3, §4

[3] = tested on: A549/ATCC (Non-Small Cell Lung Cancer); assay: NCI DTP tumor cell line screen (SRB), A549/ATCC
Experimental: as §1, §2, §3, §4

SK-MEL-28 (Melanoma) = assay: NCI DTP tumor cell line screen (SRB), SK-MEL-28
Experimental: as §1, §2, §3, §4

## 4-[5-(2-Phenanthrenyl)-3-(trifluoromethyl)-1H-pyrazol-1-yl]-phenyl -guanidine [Compound 71]
[1]
  GI50: 1060 nM
  TGI: 2.24E−06
[1]; Log10 Concentration −5.0
  Percent Growth: −100%
[1]; Log10 Concentration −7.0
  Percent Growth: 63%
[1]; Log10 Concentration −8.0
  Percent Growth: 55%
ACHN (Renal Cancer)
  GI50: 1670 nM
  TGI: 3.15E−06
ACHN (Renal Cancer); Log10 Concentration −4.0
  Percent Growth: −22%
ACHN (Renal Cancer); Log10 Concentration −5.0
  Percent Growth: −91%
ACHN (Renal Cancer); Log10 Concentration −6.0
  Percent Growth: 90%
ACHN (Renal Cancer); Log10 Concentration −8.0
  Percent Growth: 80%
MCF7 (Breast Cancer)
  GI50: 1820 nM
  TGI: 3.44E−06
MCF7 (Breast Cancer); Log10 Concentration −4.0
  Percent Growth: −49%
MCF7 (Breast Cancer); Log10 Concentration −6.0
  Percent Growth: 97%
MCF7 (Breast Cancer); Log10 Concentration −7.0
  Percent Growth: 82%
K-562 (Leukemia)
  GI50: 326 nM
  TGI: 1.52E−06
K-562 (Leukemia); Log10 Concentration −4.0
  Percent Growth: −60%
K-562 (Leukemia); Log10 Concentration −5.0
  Percent Growth: −58%
K-562 (Leukemia); Log10 Concentration −6.0
  Percent Growth: 13%
K-562 (Leukemia); Log10 Concentration −8.0
  Percent Growth: 94%
786-0 (Renal Cancer)
  GI50: 1490 nM
  TGI: 2.91E−06
786-0 (Renal Cancer); Log10 Concentration −4.0
  Percent Growth: −30%
786-0 (Renal Cancer); Log10 Concentration −6.0
  Percent Growth: 80%
UO-31 (Renal Cancer)
  GI50: 1570 nM
  TGI: 2.92E−06
UO-31 (Renal Cancer); Log10 Concentration −4.0
  Percent Growth: −35%
UO-31 (Renal Cancer); Log10 Concentration −5.0
  Percent Growth: −100%
UO-31 (Renal Cancer); Log10 Concentration −7.0
  Percent Growth: 94%
UO-31 (Renal Cancer); Log10 Concentration −8.0
  Percent Growth: 91%
T-47D (Breast Cancer)
  GI50: < 10 nM
  TGI: 1.98E−06
T-47D (Breast Cancer); Log10 Concentration −4.0
  Percent Growth: −53%
T-47D (Breast Cancer); Log10 Concentration −5.0
  Percent Growth: −76%
T-47D (Breast Cancer); Log10 Concentration −6.0
  Percent Growth: 32%
T-47D (Breast Cancer); Log10 Concentration −7.0
  Percent Growth: 47%
T-47D (Breast Cancer); Log10 Concentration −8.0
  Percent Growth: 36%
[2]
  GI50: 1720 nM
[2]; Log10 Concentration −4.0
  Percent Growth: −36%
[2]; Log10 Concentration −5.0
  Percent Growth: −98%
[2]; Log10 Concentration −7.0
  Percent Growth: 97%
[2]; Log10 Concentration −8.0
  Percent Growth: 100%
IGROV1 (Ovarian Cancer)
  GI50: 1070 nM
  TGI: 2.26E−06
IGROV1 (Ovarian Cancer); Log10 Concentration −4.0
  Percent Growth: −53%
IGROV1 (Ovarian Cancer); Log10 Concentration −5.0
  Percent Growth: −100%
IGROV1 (Ovarian Cancer); Log10 Concentration −6.0
  Percent Growth: 55%
IGROV1 (Ovarian Cancer); Log10 Concentration −7.0
  Percent Growth: 83%
IGROV1 (Ovarian Cancer); Log10 Concentration −8.0
  Percent Growth: 85%
CAKI-1 (Renal Cancer)
  GI50: 1830 nM
  TGI: 3.22E−06
CAKI-1 (Renal Cancer); Log10 Concentration −4.0
  Percent Growth: −47%
CAKI-1 (Renal Cancer); Log10 Concentration −5.0
  Percent Growth: −100%
CAKI-1 (Renal Cancer); Log10 Concentration −6.0
  Percent Growth: 103%
CAKI-1 (Renal Cancer); Log10 Concentration −8.0
  Percent Growth: 97%
HCT-116 (Colon Cancer)
  GI50: 1290 nM
  TGI: 2.55E−06
HCT-116 (Colon Cancer); Log10 Concentration −4.0
  Percent Growth: −49%
HCT-116 (Colon Cancer); Log10 Concentration −5.0
  Percent Growth: −100%
HCT-116 (Colon Cancer); Log10 Concentration −6.0
  Percent Growth: 68%
HCT-116 (Colon Cancer); Log10 Concentration −8.0
  Percent Growth: 82%
UACC-62 (Melanoma)
  GI50: 1440 nM
  TGI: 2.74E−06
UACC-62 (Melanoma); Log10 Concentration −4.0
  Percent Growth: −60%
UACC-62 (Melanoma); Log10 Concentration −5.0
  Percent Growth: −100%
UACC-62 (Melanoma); Log10 Concentration −6.0
  Percent Growth: 78%
UACC-62 (Melanoma); Log10 Concentration −7.0
  Percent Growth: 83%
OVCAR-8 (Ovarian Cancer); OVCAR 8
  GI50: 1690 nM
  TGI: 3.05E−06
OVCAR-8 (Ovarian Cancer); OVCAR 8, Log10 Concentration −4.0
  Percent Growth: −69%
OVCAR-8 (Ovarian Cancer); OVCAR 8, Log10 Concentration −5.0
  Percent Growth: −100%
OVCAR-8 (Ovarian Cancer); OVCAR 8, Log10 Concentration −6.0
  Percent Growth: 94%
OVCAR-8 (Ovarian Cancer); OVCAR 8, Log10 Concentration −8.0
  Percent Growth: 92%
RXF 393 (Renal Cancer); RXF 383
  TGI: 2.91E−06
RXF 393 (Renal Cancer); RXF 383, Log10 Concentration −4.0
  Percent Growth: −4%
RXF 393 (Renal Cancer); RXF 383, Log10 Concentration −6.0
  Percent Growth: 53%
RXF 393 (Renal Cancer); RXF 383, Log10 Concentration −7.0
  Percent Growth: 53%
RXF 393 (Renal Cancer); RXF 383, Log10 Concentration −8.0
  Percent Growth: 42%
[3]
  GI50: 1680 nM
  TGI: 3.04E−06
[3]; Log10 Concentration −4.0
  Percent Growth: −63%
[3]; Log10 Concentration −5.0
  Percent Growth: −100%
SK-MEL-28 (Melanoma)
  GI50: 1560 nM
  TGI: 2.89E−06
SK-MEL-28 (Melanoma); Log10 Concentration −4.0
  Percent Growth: −53%
SK-MEL-28 (Melanoma); Log10 Concentration −5.0
  Percent Growth: −100%
SK-MEL-28 (Melanoma); Log10 Concentration −7.0
  Percent Growth: 90%
